From ChEMBL document CHEMBL1148879, “1,4-Dihydroindeno[1,2-c]pyrazoles as potent checkpoint kinase 1 inhibitors: extended exploration on phenyl ring substitutions and preliminary ADME/PK studies” (Bioorg Med Chem Lett, 2007)

How the values were obtained:
[1] = biological target: T1, Serine/threonine-protein kinase Chk1 (Homo sapiens, UniProt O14757); experiment: Inhibition of recombinant CHK-mediated Cdc25C phosphorylation after 30 mins
T1 sequence (O14757 whole entry): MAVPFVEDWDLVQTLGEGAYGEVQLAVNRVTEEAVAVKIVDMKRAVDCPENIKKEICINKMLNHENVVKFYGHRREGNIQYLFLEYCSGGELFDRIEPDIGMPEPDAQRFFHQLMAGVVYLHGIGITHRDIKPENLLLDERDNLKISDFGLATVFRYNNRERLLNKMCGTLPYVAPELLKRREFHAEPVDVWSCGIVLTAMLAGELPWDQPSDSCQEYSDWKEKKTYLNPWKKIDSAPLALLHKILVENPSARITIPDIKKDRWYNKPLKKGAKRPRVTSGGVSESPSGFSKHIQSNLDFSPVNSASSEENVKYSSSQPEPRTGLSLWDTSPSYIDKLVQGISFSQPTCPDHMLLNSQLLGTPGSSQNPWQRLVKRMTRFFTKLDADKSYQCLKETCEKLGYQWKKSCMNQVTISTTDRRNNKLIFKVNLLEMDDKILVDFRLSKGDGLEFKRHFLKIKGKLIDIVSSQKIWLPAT

[2] = test system: HeLa; experiment: cells; details: Homo sapiens
Description: Antiproliferative activity against human HeLa cells by MTS assay

[3] = Antiproliferative activity against human H1299 cells by FACS assay; assay type: functional, cell-based; details: NCI-H1299
[4] = Cmax in mouse at 10 mg/kg, ip; assay type: ADME, organism-based; set-up: dose 10 mg/kg, route intraperitoneal; details: in vivo
[5] = Cmax in mouse at 10 mg/kg, po; assay type: ADME, organism-based; set-up: dose 10 mg/kg, route oral; details: in vivo
[6] = Half life in mouse at 3 mg/kg, iv; assay type: ADME, organism-based; set-up: dose 3 mg/kg, route intravenous; details: in vivo
[7] = Oral bioavailability in mouse at 10 mg/kg; assay type: ADME, organism-based; details: in vivo
[8] = test system: Mus musculus; experiment: (§1) AUC in mouse at 3 mg/kg, iv; assay type: ADME, organism-based, Plasma; set-up: dose 3 mg/kg, route intravenous; details: in vivo
[9] = Volume of distribution in mouse at 3 mg/kg, iv; assay type: ADME, organism-based; set-up: dose 3 mg/kg, route intravenous; details: in vivo, read-out: Vdss
[10] = AUC in mouse at 10 mg/kg, ip; assay type: ADME, organism-based; set-up: dose 10 mg/kg, route intraperitoneal; details: plasma
[11] = AUC in mouse at 10 mg/kg, po; assay type: ADME, organism-based; set-up: dose 10 mg/kg, route oral; details: plasma
[12] = as §1; assay type: ADME, organism-based, Plasma; set-up: dose 3 mg/kg, route intravenous; details: plasma
[13] = Plasma clearance in mouse at 3 mg/kg, iv; assay type: ADME, organism-based; set-up: dose 3 mg/kg, route intravenous
[14] = Aqueous solubility at neutral pH; assay type: physicochemical; details: buffer
[15] = Metabolic stability in rat liver microsomes assessed as half life at 1 uM; assay type: ADME, Microsome
[16] = Metabolic stability in rat liver microsomes assessed as compound remaining at 1 uM after 30 mins; assay type: ADME, Microsome; details: read-out: Stability
[17] = Apparent permeability across human Caco-2 cells at 1 uM; assay type: ADME, cell-based
[18] = Metabolic stability in rat liver microsome assessed as […] at 1 uM; assay type: ADME; details: liver microsomes, read-out: Activity (converted)

SMILES | IC50 [1] [nM] | EC50 [2] [nM] | EC50 [3] [nM] | further results
COc1cc2c(cc1CN[C@H]1CC[C@H](O)CC1)Cc1c(-c3ccc(-c4ccc(O)cc4)cc3)n[nH]c1-2 | 0.56 | 620 | 3100 | 
O=C(c1ccc2c(c1)-c1[nH]nc(-c3ccc(-c4ccc(O)cc4)cc3)c1C2)N1CCOCC1 | 91 |  |  | 
COc1cc2c(cc1CN1CCN(C)CC1)Cc1c(-c3ccc(-c4ccc(O)c(F)c4)cc3)n[nH]c1-2 | 28 |  |  | Cmax [4]: 1300 nM; Cmax [5]: 80 nM; half-life [6]: 36 min; bioavailability [7]: 6%; AUC [8]: 690 ng·h/mL; Vd [9]: 9.2 L/kg; AUC [10]: 1600 ng·h/mL; AUC [11]: 130 ng·h/mL
O=C(CNCc1ccncc1)Nc1ccc2c(c1)Cc1c(-c3ccc(-c4ccc(O)cc4)cc3)n[nH]c1-2 | 6.4 |  |  | 
COc1cc2c(cc1C(=O)N[C@H]1CC[C@H](O)CC1)C(C)(C)c1c(-c3ccc(-c4ccc(O)cc4)cc3)n[nH]c1-2 | 18 | 8600 | > 10000 | 
CC(C)(C)CNCc1cccc2c1Cc1c(-c3ccc(-c4ccc(O)cc4)cc3)n[nH]c1-2 | 209 |  |  | 
CC(=O)Nc1cccc2c1Cc1c(-c3ccc(-c4ccc(O)cc4)cc3)n[nH]c1-2 | 5.5 |  |  | 
OCc1ccc2c(c1)-c1[nH]nc(-c3ccc(-c4ccc(O)cc4)cc3)c1C2 | 4.4 | > 59000 | > 10000 | 
Oc1ccc(-c2ccc(-c3[nH]nc4c3Cc3cccc(O)c3-4)cc2)cc1 | 671 |  |  | 
COc1cc2c(cc1CNCCN1CCCC1)Cc1c(-c3ccc(-c4ccc(O)cc4)cc3)n[nH]c1-2 | 0.21 | 910 | 5100 | 
Oc1ccc(-c2ccc(-c3n[nH]c4c3Cc3ccc(CNCCN5CCCC5)cc3-4)cc2)cc1 | 7.1 | 2800 |  | 
O=C(CNCCO)Nc1ccc2c(c1)Cc1c(-c3ccc(-c4ccc(O)cc4)cc3)n[nH]c1-2 | 0.74 | > 59000 | > 10000 | 
OCc1ccc2c(c1)Cc1c(-c3ccc(-c4ccc(O)cc4)cc3)n[nH]c1-2 | 7.7 | > 59000 |  | 
COc1cc2c(cc1CN1CCN(C)CC1)Cc1c(-c3ccc(-c4ccc(O)cc4)cc3)n[nH]c1-2 | 0.51 |  |  | 
COc1cc2c(cc1C(=O)NCCN1CCCC1)Cc1c(-c3ccc(-c4ccc(O)cc4)cc3)n[nH]c1-2 | 0.83 |  |  | 
CN(C)CCNCc1ccc2c(c1)-c1[nH]nc(-c3ccc(-c4ccc(O)cc4)cc3)c1C2 | 5.2 | > 59000 | > 10000 | 
Oc1ccc(-c2ccc(-c3n[nH]c4c3Cc3cc(O)ccc3-4)cc2)cc1 | 4.4 |  |  | 
COc1cc2c(cc1C(=O)NCc1ccccn1)Cc1c(-c3ccc(-c4ccc(O)c(F)c4)cc3)n[nH]c1-2 | 27 |  |  | Cmax [4]: 2800 nM; Cmax [5]: < 50 nM; half-life [6]: 27.6 min; bioavailability [7]: 0%; AUC [12]: 1700 ng·h/mL; Vd [9]: 2.4 L/kg; clearance [13]: 60 mL/min/kg; AUC [10]: 3800 ng·h/mL
COc1cc2c(cc1C(=O)N1CCOCC1)Cc1c(-c3ccc(-c4ccc(O)cc4)cc3)n[nH]c1-2 | 0.55 |  |  | 

SMILES | IC50 [1] [nM] | EC50 [2] [nM] | EC50 [3] [nM] | further results
COc1cc2c(cc1C(=O)N1CCN(C)CC1)Cc1c(-c3ccc(-c4ccc(O)cc4)cc3)n[nH]c1-2 | 2.3 |  |  | 
CN1CCN(Cc2ccc3c(c2)Cc2c(-c4ccc(-c5ccc(O)cc5)cc4)n[nH]c2-3)CC1 | 24 | 1700 | > 10000 | Cmax [4]: 1100 nM; Cmax [5]: 90 nM; solubility [14]: < 0.03 µg/mL; half-life [6]: 30 min; bioavailability [7]: 9%; AUC [8]: 1500 ng·h/mL; Vd [9]: 3.4 L/kg; AUC [10]: 2700 ng·h/mL; AUC [11]: 450 ng·h/mL
COc1cc2c(cc1CNCCO)Cc1c(-c3ccc(-c4ccc(O)cc4)cc3)n[nH]c1-2 | 0.43 |  |  | 
O=C(NCCO)c1ccc2c(c1)-c1[nH]nc(-c3ccc(-c4ccc(O)cc4)cc3)c1C2 | 5 |  |  | 
CC(C)(C)NCc1ccc2c(c1)-c1[nH]nc(-c3ccc(-c4ccc(O)cc4)cc3)c1C2 | 34 |  |  | 
COc1cc2c(cc1C(=O)NCc1ccccn1)Cc1c(-c3ccc(-c4ccc(O)c(C#N)c4)cc3)n[nH]c1-2 | 9090 |  |  | 
Oc1ccc(-c2ccc(-c3n[nH]c4c3Cc3ccccc3-4)cc2)cc1 | 1370 |  |  | 
COc1cc2c(cc1CN1CCC(O)CC1)Cc1c(-c3ccc(-c4ccc(O)cc4)cc3)n[nH]c1-2 | 1.1 |  |  | 
O=C(N[C@H]1CC[C@H](O)CC1)c1cccc2c1Cc1c(-c3ccc(-c4ccc(O)cc4)cc3)n[nH]c1-2 | > 10000 |  |  | 
COc1cc2c(cc1CN1CCN(C)CC1)Cc1c(-c3ccc(-c4ccc(O)c(C#N)c4)cc3)n[nH]c1-2 | > 10000 |  |  | 
COc1cc2c(cc1C(=O)N1CCC(O)CC1)Cc1c(-c3ccc(-c4ccc(O)cc4)cc3)n[nH]c1-2 | 0.24 | 1400 | 5200 | 
O=C(CN[C@H]1CC[C@H](O)CC1)Nc1ccc2c(c1)Cc1c(-c3ccc(-c4ccc(O)cc4)cc3)n[nH]c1-2 | 1.2 | > 59000 | > 10000 | 
O=C(NCc1ccccc1)c1cccc2c1Cc1c(-c3ccc(-c4ccc(O)cc4)cc3)n[nH]c1-2 | > 10000 |  |  | 
CNC(=O)c1ccc2c(c1)-c1[nH]nc(-c3ccc(-c4ccc(O)cc4)cc3)c1C2 | 2.3 |  |  | 
OCc1cccc2c1Cc1c(-c3ccc(-c4ccc(O)cc4)cc3)n[nH]c1-2 | 7.8 | > 59000 |  | 
COc1cc2c(cc1C(=O)N[C@H]1CC[C@H](O)CC1)Cc1c(-c3ccc(-c4ccc(O)cc4)cc3)n[nH]c1-2 | 0.24 | 38000 | > 10000 | Cmax [4]: 1500 nM; Cmax [5]: < 100 nM; half-life [6]: 23.4 min; bioavailability [7]: 0%; AUC [12]: 570 ng·h/mL; Vd [9]: 6 L/kg; clearance [13]: 183 mL/min/kg; AUC [10]: 4200 ng·h/mL
O=C(NCc1ccccn1)c1ccc2c(c1)Cc1c(-c3ccc(-c4ccc(O)cc4)cc3)n[nH]c1-2 |  | 23000 | > 10000 | half-life at 1 µM [15]: 25 min; remaining at 0.5 h, 1 µM [16]: 40%; Papp at 1 µM [17]: 13.3 ×10⁻⁶ cm/s; Cmax [4]: 2000 nM; Cmax [5]: 250 nM; solubility [14]: < 0.03 µg/mL; half-life [6]: 36 min; bioavailability [7]: 4%; AUC [8]: 1200 ng·h/mL; Vd [9]: 4.7 L/kg; k el at 1 µM [18]: 0.00049 s⁻¹; AUC [10]: 4400 ng·h/mL; AUC [11]: 160 ng·h/mL
CCCCNCC(=O)Nc1ccc2c(c1)Cc1c(-c3ccc(-c4ccc(O)cc4)cc3)n[nH]c1-2 | 2.1 | 1700 | > 10000 | 
OCCNCc1ccc2c(c1)-c1[nH]nc(-c3ccc(-c4ccc(O)cc4)cc3)c1C2 | 12 |  |  | 
